The values that follow come from PMC7559231, “Drug-induced cholestasis assay in primary hepatocytes” (MethodsX, 2020).

Where two headings read alike, the source gives them in different places.

The test system of series [1] is sandwich-cultured human hepatocytes. Conditions: SCHH, ref [6],[7], cited from earlier work; for DICI 24 h Mean: 24 h exposure; for DICI 48 h Mean: 48 h exposure.
On the set-up of series [2]: method as in per compound in column References of Table 3 ([3], [24]-[44]). Conditions: mean total peak plasma concentration in humans; ref per compound in Table 3 ([3], [24]-[44]); cited from earlier work.
Series [3] relates to sandwich-cultured human hepatocytes. Briefly: Drug-induced cholestasis (DIC) assay: urea formation in sandwich-cultured human hepatocytes with and without the bile salt mixture. Conditions: lowest in vitro concentration with DICI < 0.78 / Cmax,total; for DICI-based SM obtained with the ‘original’ LOAEL method 24 h: 24 h incubation; for DICI-based SM obtained with the ‘original’ LOAEL method 48 h: 48 h incubation. The source says: Drug-induced cholestasis (DIC) is a major cause of attrition during drug development and post-marketing withdrawal. Early detection of DIC is crucial for avoiding financial losses and improving drug safety. Preclinical assays for DIC detection often rely on evaluation of the test compound towards individual cellular targets such as their inhibitory potential towards the bile salt export pump (BSEP) by using BSEP membrane vesicles. However, the underlying mechanisms of DIC development are more complex involving multiple other transporters and nuclear receptors. A more comprehensive in vitro model such as sandwich-cultured human hepatocytes (SCHH) are more suited due to the presence of metabolizing enzymes and transporters relevant to bile salt disposition. The assay described here relies on changes in the ability of SCHH to produce urea from ammonia in the absence and presence of a (patho-)physiologically relevant bile salt mixture. Ammonia is detoxified in the hepatocyte by the urea cycle to form non-toxic urea. Measuring changes in urea production allows for the quantitative evaluation of the hepatocyte's biochemical and functional integrity. The colorimetric quantitation of urea formation is based on the reaction between urea and diacetylmonoxime.
By determining the ratio of urea formation after incubation with test compound in absence and in presence of the bile salt mixture, the DIC index (DICI) value can be calculated. […] It was previously established that a compound with a SM below 30 can be considered to display increased risk for causing cholestasis in the clinic.
If longer incubations are required (e.g. 48 h), the medium is changed again after 24 h (day 6) with fresh medium containing the same initial concentrations of test compound and bile salts as 24 h before.
• Solution 1: culture medium with no compound and 0.2% DMSO. […] This solution should be filtered through a 0.2 µm filter and prewarmed for 30 min at 37°C. • Solution 4: culture medium with double concentrated test compound. […] This solution should be filtered through a 0.2 µm filter and prewarmed for 30 min at 37°C. • Solution 5: control medium with bile salts, prepared by mixing solution 1 and solution 2 in a 1:1 ratio. • Solution 6: culture medium with positive control without bile salts, prepared by mixing solution 1 and solution 3 in a 1:1 ratio. • Solution 7: culture medium with positive control with bile salts, prepared by mixing solution 2 and solution 3 in a 1:1 ratio. • Solution 8: culture medium with test compound without bile salts, prepared by mixing solution 1 and solution 4 in a 1:1 ratio. • Solution 9: culture medium with test compound with bile salts, prepared by mixing solution 2 and solution 4 in a 1:1 ratio.
• 1. On day 5, aspirate the medium and preincubate the cells with solution 1, solution 6 or solution 8 for 2 h. Note: this preincubation step is performed to enable the compounds to interact with the cellular machinery. • 2. After 2 h, aspirate the medium and immediately incubate the cells with solution 1, solution 5, solution 6, solution 7, solution 8 or solution 9 for 22 h.
The urea assay is performed on day 6 or day 7 for 24 h and 48 h incubations, respectively.
• Solutions for the color reagent. […] Note: perform this procedure on ice as this is an exothermic reaction. Wear appropriate protective gear. • ○ Solution B prepared by mixing the thiosemicarbazide solution and the diacetyl monoxime in a 1:1 ratio. • Incubation buffer: HBSS containing 10 mM HEPES, 2 mM glutamine, 10 mM ammonium chloride and 3 mM ornithine, filtered through a 0.2 µm filter and prewarmed at 37°C. • 96-well thermostable plate with aluminum cover slip.
• 1. Aspirate the culture medium. • 2. Wash the wells twice with 250 µL prewarmed incubation buffer. Aspirate the remaining buffer. • 3. Add 125 µL prewarmed incubation buffer to each well and keep the plate at 37°C for 1 h. • 4.

With `COC(=O)N[C@H](C(=O)N[C@@H](Cc1ccccc1)[C@@H](O)CN(Cc1ccc(-c2ccccn2)cc1)NC(=O)[C@@H](NC(=O)OC)C(C)(C)C)C(C)(C)C` [Atazanavir, atazanavir], in series [1] (50 µM test compound), the “DICI 24 h Mean” value is listed as 0.87 and the “DICI 48 h Mean” value was 0.86. Also, in series [1] (150 µM test compound), the “DICI 24 h Mean” value was 1.19 and the “DICI 48 h Mean” value was 0.73. In addition, the “Cmax,total” value in series [2] is 4.82 µM. In series [3], the “DICI-based SM obtained with the ‘original’ LOAEL method 24 h” value was 31.12 and the “DICI-based SM obtained with the ‘original’ LOAEL method 48 h” value worked out at 31.12.
For `COc1ccccc1Oc1c(NS(=O)(=O)c2ccc(C(C)(C)C)cc2)nc(-c2ncccn2)nc1OCCO` [Bosentan, bosentan], in series [1] (50 µM test compound), the “DICI 24 h Mean” value was 1.07 and the “DICI 48 h Mean” value is listed as 1.06. In series [1] (100 µM test compound), the “DICI 24 h Mean” value is 0.99 and the “DICI 48 h Mean” value is listed as 0.87. Also, in series [1] (200 µM test compound), the “DICI 24 h Mean” value is given as 1.15 and the “DICI 48 h Mean” value is on record as 1.02. The “Cmax,total” value in series [2] was 7.39 µM. Moreover, in series [3], the “DICI-based SM obtained with the ‘original’ LOAEL method 24 h” value is reported as 27.06 and the “DICI-based SM obtained with the ‘original’ LOAEL method 48 h” value is 27.06.
Turning to `O=C1CC2(CCCC2)CC(=O)N1CCCCN1CCN(c2ncccn2)CC1` [Buspirone, buspirone], the “DICI 24 h Mean” value in series [1] (0.5 µM test compound) is on record as 0.69; in series [1] (1 µM test compound), 0.87; in series [1] (5 µM test compound), 0.74; in series [1] (10 µM test compound), 0.82; in series [1] (25 µM test compound), 0.84; in series [1] (50 µM test compound), 0.68. The “DICI 24 h Mean” value in series [1] (150 µM test compound) is recorded as 0.53. In addition, the “DICI 48 h Mean” value in series [1] (0.5 µM test compound) is 0.82; in series [1] (1 µM test compound) it was 0.90; in series [1] (5 µM test compound), 0.95; in series [1] (10 µM test compound), 0.95; in series [1] (25 µM test compound), 0.71; in series [1] (50 µM test compound), 0.48. Also, the “DICI 48 h Mean” value in series [1] (150 µM test compound) is listed as 0.37. The “Cmax,total” value in series [2] is on record as 0.01 µM. Besides, the “DICI-based SM obtained with the ‘original’ LOAEL method 24 h” value in series [3] is 5000. In addition, the “DICI-based SM obtained with the ‘original’ LOAEL method 48 h” value in series [3] is 15000.
On to `CN(C)CCCN1c2ccccc2Sc2ccc(Cl)cc21` [Chlorpromazine, chlorpromazine], for which the “DICI 24 h Mean” value in series [1] (10 µM test compound) is 0.48. For the same molecule, in series [2], the “Cmax,total” value is on record as 0.0376 µM. In series [3], the “DICI-based SM obtained with the ‘original’ LOAEL method 24 h” value was 265.96.
Consider `CCN(CC)C(=O)/C(C#N)=C/c1cc(O)c(O)c([N+](=O)[O-])c1` [Entacapone, entacapone], for which, in series [1] (10 µM test compound), the “DICI 24 h Mean” value is 1.11 and the “DICI 48 h Mean” value is on record as 1.02. Moreover, in series [1] (30 µM test compound), the “DICI 24 h Mean” value was 1.07 and the “DICI 48 h Mean” value was 0.98. In series [1] (130 µM test compound), the “DICI 24 h Mean” value was 0.62 and the “DICI 48 h Mean” value is given as 0.10. Moreover, the “Cmax,total” value in series [2] is reported as 4.34 µM. Besides, in series [3], the “DICI-based SM obtained with the ‘original’ LOAEL method 24 h” value was determined as 29.95 and the “DICI-based SM obtained with the ‘original’ LOAEL method 48 h” value is reported as 29.95.
Turning to `CN(C)C(=N)N=C(N)N` [Metformin, metformin], the “DICI 24 h Mean” value in series [1] (150 µM test compound) was 1.09; in series [1] (300 µM test compound) it was 1.03; in series [1] (900 µM test compound), 1.12. The entries for the “DICI 48 h Mean” value in series [1] (150 µM test compound), in series [1] (300 µM test compound) and in series [1] (900 µM test compound) were 1.34, 1.26 and 1.18, respectively. In series [2], the “Cmax,total” value is given as 7.75 µM.
Consider `C1CCC(C(CC2CCCCN2)C2CCCCC2)CC1` (stereo not shown) [Perhexiline, perhexiline], for which, in series [1] (3 µM test compound), the “DICI 24 h Mean” value is listed as 1.00 and the “DICI 48 h Mean” value was 0.80. In series [1] (9 µM test compound), the “DICI 24 h Mean” value is 1.03 and the “DICI 48 h Mean” value was 0.98. Besides, in series [1] (65 µM test compound), the “DICI 24 h Mean” value was 1.10 and the “DICI 48 h Mean” value is recorded as 1.02. Further, in series [3], the “DICI-based SM obtained with the ‘original’ LOAEL method 24 h” value came out at 30.09 and the “DICI-based SM obtained with the ‘original’ LOAEL method 48 h” value stood at 30.09.
As to `CC(C)c1nc(CN(C)C(=O)N[C@H](C(=O)N[C@@H](Cc2ccccc2)C[C@H](O)[C@H](Cc2ccccc2)NC(=O)OCc2cncs2)C(C)C)cs1` [Ritonavir, ritonavir], the “Cmax,total” value in series [2] is on record as 13.24 µM.
On to `CN(CCOc1ccc(CC2SC(=O)NC2=O)cc1)c1ccccn1` (stereo not shown) [Rosiglitazone, rosiglitazone], for which the “DICI-based SM obtained with the ‘original’ LOAEL method 24 h” value in series [3] came out at 56.31.
As for `Clc1ccccc1CN1CCc2sccc2C1` [Ticlopidine, ticlopidine], in series [2], the “Cmax,total” value is 2.898 µM.
For `CO[C@H]1C[C@H](O[C@H]2[C@H](C)[C@@H](O[C@@H]3O[C@H](C)C[C@H](N(C)C)[C@H]3OC(C)=O)[C@@H](C)C[C@@]3(CO3)C(=O)[C@H](C)[C@@H](OC(C)=O)[C@@H](C)[C@@H](C)OC(=O)[C@@H]2C)O[C@@H](C)[C@@H]1OC(C)=O` [Troleandomycin, troleandomycin], the “DICI 24 h Mean” value in series [1] (10 µM test compound) is on record as 1.00; in series [1] (12.5 µM test compound), 1.41; in series [1] (20 µM test compound), 1.12; in series [1] (25 µM test compound), 1.13; in series [1] (50 µM test compound), 0.93; in series [1] (100 µM test compound), 0.97. In addition, the “DICI 48 h Mean” value in series [1] (10 µM test compound) is 0.83; in series [1] (20 µM test compound), 0.91.
With `CC(=O)CC(c1ccccc1)c1c(O)c2ccccc2oc1=O` (stereo not shown) [Warfarin, warfarin], the “DICI 24 h Mean” value in series [1] (500 µM test compound) is reported as 1.31. Further, the “DICI-based SM obtained with the ‘original’ LOAEL method 24 h” value in series [3] was 71.74.
